Laboratory results taken from patent US7893066B2, “Pyridol[2,3-B]pyrazinones for use as stearoyl CoA desaturase inhibitors” (Gilead Palo Alto, Inc., priority 2006, dated 2011).
pIC50: −log10 of the molar value.

target: T1, stearoyl-CoA desaturase (SCD) (Rattus norvegicus, UniProt P07308); assay: SCD assay, rat liver microsomes with [3H]stearoyl CoA (adapted from Talamo and Bloch); type: biochemical; conditions: second table, same SCD assay
T1 construct: from tissue; host or cells: liver microsomes of male Sprague Dawley rats, with SCD induced by a carbohydrate-rich diet
T1 sequence (P07308 1-358): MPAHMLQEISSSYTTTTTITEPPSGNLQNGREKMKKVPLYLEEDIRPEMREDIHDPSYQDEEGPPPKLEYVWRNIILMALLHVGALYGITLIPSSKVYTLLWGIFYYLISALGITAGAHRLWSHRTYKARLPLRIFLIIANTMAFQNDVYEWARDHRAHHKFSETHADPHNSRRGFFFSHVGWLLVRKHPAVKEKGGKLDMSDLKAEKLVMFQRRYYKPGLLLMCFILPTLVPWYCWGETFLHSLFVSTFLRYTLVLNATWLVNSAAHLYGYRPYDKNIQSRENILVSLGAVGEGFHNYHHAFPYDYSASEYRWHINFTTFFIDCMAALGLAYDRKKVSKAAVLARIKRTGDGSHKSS
Description: The identification of compounds of the invention as SCD inhibitors was readily accomplished using the SCD enzyme and microsomal assay procedure described in Talamo and Bloch (1969) Analytical Biochemistry 29:300-304.
The rat liver microsomes were collected according to the procedure described in Ozols (1990) Methods Enzm, 182:225.
Male Spraque Dawley Rats were placed on regimented fasting protocol for one week to stimulate SCD enzymatic activity. 48-hour periods were alternated between feeding and fasting to induce and down-regulate SCD activity with SCD activity being induced via carbohydrate rich diet prior to liver perfusion and collection.
The rats were anesthetized with Isoflurane inhalation anesthetic, the liver perfused with cold phosphate buffered saline (PBS), weighed, and chilled in cold homogenization buffer (250 mM sucrose, 10 mM Tris, 1 mM EDTA, pH 7.6.
The livers were finely minced and placed in homogenization tube. 40 mL of homogenization buffer was added to the homogenization tube and the liver homogenized and centrifuged in a pre-chilled SLA-600 TC at 800G rotor for 10 min at 4° C.
Following centrifugation, the supernatant was collected and the pellet removed and discarded. This supernatant was then centrifuged at 10,000G for 35 minutes. Following centrifugation, the supernatant was collected and the pellet discarded. The supernatant was further centrifuged in a pre-chilled 45-Ti rotor at 130,000 G (41,000 RPM) for 90 minutes at 4° C.
The supernatant was then aspirated off and the collected microsomal pellet washed in 25 mL of Glycerol PBS (1×PBS 7.4, 20% Glycerol) and resuspended in 4-5 volumes of Glycerol PBS.
The protein concentration of the microsomal preparation was determined by BCA assay (Pierce) and the microsomes were aliquoted and stored at −80° C.
Biobeads were ground to a smaller size in a mortar and pestle and filtered through 300 μM mesh and then resuspended in 3.6% TCA.
SCD was determined in the desaturase assay buffer. This assay buffer contained 0.1 M Tris buffer, pH 7.2, 2 mM NADH, 4.8 mM ATP, 0.5 mM CoA, 4.8 mM MgCl2, and 0.1% BSA.
1 μl of each compound of Formula I was added to an assay plate by a low volume (0.5-10 μL) multichannel pipette. A DMSO control was also prepared. The microsomes were quickly thawed and added to assay buffer so that a concentration of 1-0.1 mg/ml was achieved (0.5-0.05 mg/ml assay final). 50 μl of the microsome suspension in assay buffer was then added into each well in the compound assay plate, the plate was covered, and the microsomes preincubated with the compounds for 30-60 minutes on the orbital shaker, 50-75 rpm, at room temperature.
After preincubation, the reaction was initiated by the addition of 50 μl of substrate solution (20 μM Stearoyl CoA, [3H]Stearoyl CoA, 74nCi) to the preincubated microsomes/compound suspensions in MilliQ (Millipore) H2O. The reaction mixtures were then incubated for 45 minutes on the orbital shaker at 50-75 rpm at room temperature.
The reaction was terminated by the addition of 10 μl of 21% trichloroacetic acid (TCA) to the reaction mixture followed incubation on the orbital shaker for 30 minutes at 50-75 rpm at room temperature followed by centrifugation for 5 minutes at 3700 rpm.
50 μl of a 6% Bio-Bead suspension in H2O was added to the reaction mixture and the assay plate was sealed. The Bio-Bead mixture was incubated on the orbital shaker for 1 to 24 hours, 100-150 rpm at room temperature, and then the mixture was centrifuged at 2000g for 5 minutes to pellet the Bio-Beads.
25 μl of the supernatant was harvested from each well and transferred to a detection plate. 100 μl of OptiPhase SuperMix scinitillation cocktail (containing sufficient NaOH to neutralize the TCA) was added and the solutions mixed by vigorous shaking (300-400 rpm) for 5 minutes at room temperature.

**Q.** CC(=O)NCCn1c(=O)c(-c2ccc(NC(C)=O)cc2)nc2ccc(NCc3cccc(C(F)(F)F)c3)nc21 [compound 25, N-(4-(4-(2-acetamidoethyl)-3-oxo-6-(3-(trifluoromethyl)benzylamino)-3,4-dihydropyrido[2,3-b]pyrazin-2-yl)phenyl)acetamide] was tested. Which pIC50 did it give?
**A.** 5.37

**Q.** COc1ccc(-c2nc3ccc(NCc4ccccc4)nc3n(CCNC(C)=O)c2=O)cc1 [compound 8, N-(2-(6-(benzylamino)-2-(4-methoxyphenyl)-3-oxopyrido[2,3-b]pyrazin-4(3H)-yl)ethyl)acetamide] was tested. Which pIC50 did it give?
**A.** 6.08

**Q.** With “2,3-dihydroxy-N-(2-(3-methyl-2-oxo-7-(3-(trifluoromethyl)benzylamino)quinoxalin-1(2H)-yl)ethyl)propanamide [compound 52]” as the compound, how does the pIC50 read?
**A.** 6.44

**Q.** How did the pIC50 turn out when COc1ccc(-c2nc3ccc(NCc4ccc(Cl)c(Cl)c4)nc3n(C(C)CC(N)=O)c2=O)cc1 (stereo not drawn) [compound 5, 3-(6-(3,4-dichlorobenzylamino)-2-(4-methoxyphenyl)-3-oxopyrido[2,3-b]pyrazin-4(3H)-yl)butanamide] was run?
**A.** 7.28

**Q.** With COc1ccc(-c2nc3ccc(NCc4ccc(C)c(C)c4)cc3n(CCNC(C)=O)c2=O)cc1 [compound 57, N-(2-(7-(3,4-dimethylbenzylamino)-3-(4-methoxyphenyl)-2-oxoquinoxalin-1(2H)-yl)ethyl)acetamide] as the compound, how does the pIC50 read?
**A.** 7.59

**Q.** How did the pIC50 turn out when COc1ccc(-c2nc3ccc(NCc4ccc(F)c(C)c4)cc3n(CCNC(C)=O)c2=O)cc1 [compound 63, N-(2-(7-(4-fluoro-3-methylbenzylamino)-3-(4-methoxyphenyl)-2-oxoquinoxalin-1(2H)-yl)ethyl)acetamide] was run?
**A.** 8.30

**Q.** With COc1ccc(-c2nc3ccc(NCc4cccnc4)nc3n(CCNC(C)=O)c2=O)cc1 [compound 9, N-(2-(2-(4-methoxyphenyl)-3-oxo-6-(pyridin-3-ylmethylamino)pyrido[2,3-b]pyrazin-4(3H)-yl)ethyl)acetamide] as the compound, how does the pIC50 read?
**A.** 4.52

**Q.** CC(=O)NCCn1c(=O)cnc2ccc(NCc3cccc(C(F)(F)F)c3)nc21 [compound 7, N-(2-(3-oxo-6-(3-(trifluoromethyl)benzylamino)pyrido[2,3-b]pyrazin-4(3H)-yl)ethyl)acetamide] was tested. Which pIC50 did it give?
**A.** 6.66

**Q.** CONC(=O)CCn1c(=O)c(-c2ccc(OC)cc2)nc2ccc(NCc3cccc(C(F)(F)F)c3)nc21 [compound 16, N-methoxy-3-(2-(4-methoxyphenyl)-3-oxo-6-(3-(trifluoromethyl)benzylamino)pyrido[2,3-b]pyrazin-4(3H)-yl)propanamide] was tested. Which pIC50 did it give?
**A.** 6.03

**Q.** COCCOc1ccc(-c2nc3ccc(NCc4cccc(C(F)(F)F)c4)nc3n(CCNC(C)=O)c2=O)cc1 [compound 23, N-(2-(2-(4-(2-methoxyethoxy)phenyl)-3-oxo-6-(3-(trifluoromethyl)benzylamino)pyrido[2,3-b]pyrazin-4(3H)-yl)ethyl)acetamide] was tested. Which pIC50 did it give?
**A.** 6.64

**Q.** COc1ccc(-c2nc3ccc(NCc4cccc(OC(F)(F)F)c4)nc3n(CCNC(C)=O)c2=O)cc1 [compound 20] was tested. Which pIC50 did it give?
**A.** 6.59

**Q.** “4-(2-(4-methoxyphenyl)-3-oxo-6-(3-(trifluoromethyl)benzylamino)pyrido[2,3-b]pyrazin-4(3H)-yl)butanamide [compound 35]” was tested. Which pIC50 did it give?
**A.** 6.82

**Q.** With “N-(2-(6-(3,4-dichlorobenzylamino)-2-(4-methoxyphenyl)-3-oxopyrido[2,3-b]pyrazin-4(3H)-yl)ethyl)-2-hydroxyacetamide [compound 34]” as the compound, how does the pIC50 read?
**A.** 6.92

**Q.** With COc1ccc(-c2nc3ccc(NCc4ccc(Cl)c(Cl)c4)nc3n(CCNC(=O)CN)c2=O)cc1 [compound 40, 2-amino-N-(2-(6-(3,4-dichlorobenzylamino)-2-(4-methoxyphenyl)-3-oxopyrido[2,3-b]pyrazin-4(3H)-yl)ethyl)acetamide] as the compound, how does the pIC50 read?
**A.** 5.72

**Q.** COc1ccc(-c2nc3ccc(NCc4cccc(F)c4)nc3n(CCNC(C)=O)c2=O)cc1 [compound 10, N-(2-(6-(3-fluorobenzylamino)-2-(4-methoxyphenyl)-3-oxopyrido[2,3-b]pyrazin-4(3H)-yl)ethyl)acetamide] was tested. Which pIC50 did it give?
**A.** 4.74

**Q.** How did the pIC50 turn out when “(S)-2-hydroxy-N-(2-(3-methyl-2-oxo-7-(3-(trifluoromethyl)benzylamino)quinoxalin-1(2H)-yl)ethyl)propanamide [compound 48]” was run?
**A.** 5.10

**Q.** CC(=O)NCCn1c(=O)c(C)nc2cc(NCc3ccccc3)cnc21 [compound 43, N-(2-(7-(benzylamino)-2-methyl-3-oxopyrido[2,3-b]pyrazin-4(3H)-yl)ethyl)acetamide] was tested. Which pIC50 did it give?
**A.** 5.96

**Q.** COc1ccc(-c2nc3ccc(NCc4cc(C(F)(F)F)ccn4)cc3n(CCNC(C)=O)c2=O)cc1 [compound 64, N-(2-(3-(4-methoxyphenyl)-2-oxo-7-((4-(trifluoromethyl)pyridin-2-yl)methylamino)quinoxalin-1(2H)-yl)ethyl)acetamide] was tested. Which pIC50 did it give?
**A.** 7.41

**Q.** COc1ccc(-c2nc3ccc(NCc4ccc(Cl)c(Cl)c4)nc3n([C@H]3CCNC3)c2=O)cc1 [compound 2, (S)-6-(3,4-dichlorobenzylamino)-2-(4-methoxyphenyl)-4-(pyrrolidin-3-yl)pyrido[2,3-b]pyrazin-3(4H)-one] was tested. Which pIC50 did it give?
**A.** 5.74

**Q.** “N-(2-(3-methyl-2-oxo-7-(3-(trifluoromethyl)benzylamino)quinoxalin-1(2H)-yl)ethyl)thiophene-3-carboxamide [compound 51]” was tested. Which pIC50 did it give?
**A.** 8.59

**Q.** With COC(=O)c1cccc(CNc2ccc3nc(-c4ccc(OC)cc4)c(=O)n(CCNC(C)=O)c3n2)c1 [compound 15, methyl 3-((4-(2-acetamidoethyl)-2-(4-methoxyphenyl)-3-oxo-3,4-dihydropyrido[2,3-b]pyrazin-6-ylamino)methyl)benzoate] as the compound, how does the pIC50 read?
**A.** 4.72

**Q.** With “3-(3-oxo-6-(3-(trifluoromethyl)benzylamino)-2-(4-(trifluoromethyl)phenyl)pyrido[2,3-b]pyrazin-4(3H)-yl)propanamide [compound 38]” as the compound, how does the pIC50 read?
**A.** 6.89

**Q.** How did the pIC50 turn out when “(S)-3-(2-(4-methoxyphenyl)-3-oxo-6-(3-(trifluoromethyl)benzylamino)pyrido[2,3-b]pyrazin-4(3H)-yl)butanamide [compound 39]” was run?
**A.** 4.72

**Q.** With COc1ccc(-c2nc3ccc(NCCc4cccc(Cl)c4)cc3n(CCNC(C)=O)c2=O)cc1 [compound 54, N-(2-(7-(3-chlorophenethylamino)-3-(4-methoxyphenyl)-2-oxoquinoxalin-1(2H)-yl)ethyl)acetamide] as the compound, how does the pIC50 read?
**A.** 7.00

**Q.** How did the pIC50 turn out when CC(=O)NCCn1c(=O)c(-c2ccc(C)cc2)nc2ccc(NCc3cccc(C(F)(F)F)c3)nc21 [compound 26, N-(2-(3-oxo-2-p-tolyl-6-(3-(trifluoromethyl)benzylamino)pyrido[2,3-b]pyrazin-4(3H)-yl)ethyl)acetamide] was run?
**A.** 6.96

**Q.** “N-(2-(7-(2-(2-chlorophenoxy)ethylamino)-3-(4-methoxyphenyl)-2-oxoquinoxalin-1(2H)-yl)ethyl)acetamide [compound 55]” was tested. Which pIC50 did it give?
**A.** 6.60

**Q.** With CCOC(=O)c1nc2ccc(NCc3cccc(C(F)(F)F)c3)nc2n(CCNC(C)=O)c1=O [compound 17, ethyl 4-(2-acetamidoethyl)-3-oxo-6-(3-(trifluoromethyl)benzylamino)-3,4-dihydropyrido[2,3-b]pyrazine-2-carboxylate] as the compound, how does the pIC50 read?
**A.** 5.17
